According to US10894058B2, “Method for producing solid dispersion containing hardly soluble polyphenol” (KAO CORPORATION, priority 2014, dated 2021):
Values after ≈ are worked out from the molar mass of the structure shown.

Experiments:
[1] = Evaluation of solubility: concentration of hardly soluble polyphenol dissolved in ion-exchanged water, quantified by HPLC; assay type: physicochemical; settings: sample added to ion-exchanged water at 1 g/L, shaken at 25° C. for 5 minutes, filtered 0.8 μm
Method: Hardly soluble polyphenols were each quantified by a gradient method using a high-performance liquid chromatograph manufactured by Hitachi, Ltd. with a column Cadenza CD-C18 (4.6 mmφ×150 mm, 3 μm) manufactured by Imtakt Corporation at a column temperature of 40° C.
A mobile phase, solution A, was 0.05 mol/L acetic acid aqueous solution, and the other mobile phase, solution B, was acetonitrile. Flow rate was 1.0 mL/min. Gradient conditions are shown below.
In addition, ellagic acid was quantified using the same device except that only gradient conditions were set as shown below.
The sample injection volume was 10 μL, and quantification was carried out on the basis of an absorbance at a wavelength of 254 nm.
A sample was added to ion-exchanged water at 1 g/L, and the resultant was shaken at 25° C. for 5 minutes. After that, the resultant was filtered with a cellulose acetate filter having a pore size of 0.8 μm, and the concentration of a hardly soluble polyphenol dissolved was measured by the above-mentioned quantification method.

[2] = X-ray diffraction analysis: crystallinity degree of ellagic acid; assay type: physicochemical; settings: powder X-ray diffraction, FIG. 1 to FIG. 3
Method: The crystallinity degree of the hardly soluble polyphenol may be calculated by the following method. First, diffraction intensity values determined by an X-ray diffraction method are subjected to peak separation into a crystalline diffraction line and an amorphous halo through profile fitting without considering effects of incoherent scattering, a lattice defect, and the like. Next, the crystallinity degree of a hardly soluble polyphenol is calculated by the following calculation equation (2) from the resultant integrated intensities of the respective peaks: Crystallinity degree (%) of hardly soluble polyphenol=[ΣIα/(ΣIα+ΣIam)]×100 (2) where ΣIα represents a sum of integrated intensities of respective peaks in a crystalline diffraction line, and ΣIam represents a sum of integrated intensities of respective peaks in a diffraction line of an amorphous part.
An X-ray diffraction intensity was measured using “Mini Flex II” manufactured by Rigaku Corporation under the conditions of: an X-ray source of Cu/Kα-radiation; a tube voltage of 30 kV; a tube current of 15 mA; a measurement range of from 5° to 40° in terms of a diffraction angle; and an X-ray scan speed of 10°/min. A sample for measurement was prepared by compressing a pellet having an area of 400 mm^2 and a thickness of 0.5 mm.

[3] = cited from earlier work

## Oc1ccc(C=Cc2cc(O)cc(O)c2)cc1 [Comparative Example 11, Resveratrol]
[1]
  Amount of resveratrol dissolved: 0.03 g/L

## COc1ccc(-c2cc(=O)c3c(OC)c(OC)c(OC)c(OC)c3o2)cc1OC [Comparative Example 8, Nobiletin]
[1]
  Amount of nobiletin dissolved: 0.007 g/L

## O=c1oc2c(O)c(O)cc3c(=O)oc4c(O)c(O)cc1c4c23 [Comparative Example 1, Ellagic acid]
[1]
  Amount of ellagic acid dissolved: 0.0053 g/L
[2]
  crystallinity degree of ellagic acid: 87%
[3]
  solubility in water (25° C.): 5 µg/mL (≈ 16.5 µM)

## O=C1C[C@@H](c2ccc(O)cc2)Oc2cc(O)cc(O)c21 [Comparative Example 12, Naringenin]
[1]
  Amount of naringenin dissolved: 0.008 g/L

## c1cc2c(cc1[C@H]1OC[C@H]3[C@@H]1CO[C@@H]3c1ccc3c(c1)OCO3)OCO2 [Comparative Example 9, Sesamin]
[1]
  Amount of sesamin dissolved: 0.0001 g/L

## O.O.O=c1c(O)c(-c2ccc(O)c(O)c2)oc2cc(O)cc(O)c12 [Comparative Example 5, Quercetin dihydrate]
[1]
  Amount of quercetin dissolved: 0.005 g/L

## COc1cc(/C=C/C(=O)CC(=O)/C=C/c2ccc(O)c(OC)c2)ccc1O [Comparative Example 7, Curcumin]
[1]
  Amount of curcumin dissolved: 0.001 g/L
